The results in this text go back to ChEMBL document CHEMBL4483862, “Open-source discovery of chemical leads for next-generation chemoprotective antimalarials” (2018).

This experiment relates to Plasmodium berghei. Briefly: Luciferase/luciferin-expressing antifolate-resistant parasites were used to infect a culture of HepG2 cells that were pre-incubated with compounds. Infected hepatocytes emit light due to the luciferase reaction. Assay results are presented as the percent inhibition of light emission compared to control. […]. As to conditions: sporozoite; for IC90: read-out: LUCIFERASE INFECTION ASSAY - IC90. The format is functional.

Where [1] appears, read: read-out: LUCIFERASE INFECTION ASSAY - IC50.

Each structure is given as a SMILES string.

For `O=C(Nc1nc2ccccn2c1C(=O)NC1CCCCC1)c1cc(F)ccc1F`, the IC90 was 2.12 µM. Moreover, where the note is “HEPG2TOX_HILL_SLOPE 1.14, HEPG2TOX_R_SQUARED 0.869, PBLUC_HILL_SLOPE 2.93, PBLUC_R_SQUARED 0.682, read-out: LUCIFERASE INFECTION ASSAY - IC50”, the IC50 came out at 1 µM.
`O=C(Nc1ccc(-c2nc3ccccc3[nH]2)cc1)c1ccc(NC(=O)C2CC2)s1`: the IC90 was 0.674 µM. In addition, the IC50 (HEPG2TOX_HILL_SLOPE 1.89, HEPG2TOX_R_SQUARED 0.991, PBLUC_HILL_SLOPE 4.29, PBLUC_R_SQUARED 0.909, read-out: LUCIFERASE INFECTION ASSAY - IC50) stood at 0.404 µM.
Take `Cn1ccnc1SCC(=O)Nc1ccc(C(=O)Nc2ncccc2O)cc1`: the IC90 is 5.1 µM. For the same compound, the IC50 (PBLUC_HILL_SLOPE 5, PBLUC_R_SQUARED 0.401, read-out: LUCIFERASE INFECTION ASSAY - IC50) came out at 3.28 µM.
As to `COc1ccc(OCCN(C)C(=O)c2ccc(-n3cccn3)cc2)cc1`, the IC90 was above 10 µM. Further, the IC50 under setting [1] is above 10 µM.
For `O=C(NNC(=O)c1cnc2ccccc2n1)c1ccccc1`, the IC90 is 9.09 µM. Also, the IC50 (HEPG2TOX_HILL_SLOPE 2.59, HEPG2TOX_R_SQUARED 0.855, PBLUC_HILL_SLOPE 4.42, PBLUC_R_SQUARED 0.625, read-out: LUCIFERASE INFECTION ASSAY - IC50) came to 5.53 µM.
As for `COc1ccc(S(=O)(=O)Nc2ccccc2Sc2ncnc3scc(C)c23)cc1`, the IC90 is above 7.44 µM. In addition, the IC50 under setting [1] was above 7.44 µM.
As to `COc1ccc2nc(-c3ccccc3)cc(NCCN(C)C)c2c1`, the IC90 was above 10.3 µM. For the same compound, the IC50 (PBLUC_HILL_SLOPE 1.97, PBLUC_R_SQUARED 0.162, read-out: LUCIFERASE INFECTION ASSAY - IC50) is 4.55 µM.
For the compound `Cc1nn(-c2ccccc2)c(Cl)c1/C=N/Nc1nc2ccccc2[nH]1`, the IC90 was above 10 µM. For the same compound, the concentration for half-maximal inhibition (IC50) (PBLUC_HILL_SLOPE 3.35, PBLUC_R_SQUARED 0.119, read-out: LUCIFERASE INFECTION ASSAY - IC50) is 7.2 µM.
With `O=C1CCN(Cc2ccc(Cl)cc2)N1`, the IC90 was above 15.7 µM. Also, the IC50 (PBLUC_HILL_SLOPE 1.7, PBLUC_R_SQUARED 0.276, read-out: LUCIFERASE INFECTION ASSAY - IC50) stood at 14.1 µM.
As for `CC(C)S(=O)(=O)c1cnc(N2CCCCC2)nc1N`, the IC90 is above 11.6 µM. The IC50 under setting [1] was above 11.6 µM.
With `COCCNc1ccc2ncc(-c3ccc(Cl)cc3)n2n1`, the IC90 turned out to be 5.92 µM. For the same compound, the IC50 (HEPG2TOX_HILL_SLOPE 7.9, HEPG2TOX_R_SQUARED 0.252, PBLUC_HILL_SLOPE 6.86, PBLUC_R_SQUARED 0.283, read-out: LUCIFERASE INFECTION ASSAY - IC50) was 4.3 µM.
Turning to `O=C(CSc1nnc(-c2ccncc2)[nH]1)NC1CCCc2ccccc21` (stereo not drawn), the IC90 is above 10 µM. Besides, the IC50 under setting [1] was above 10 µM.
`COCCCN=C(S)NNC(=O)c1ccc(C(C)(C)C)cc1`: the 90% effect concentration (IC90) is above 10.2 µM. The IC50 (PBLUC_HILL_SLOPE 2.41, PBLUC_R_SQUARED 0.0684, read-out: LUCIFERASE INFECTION ASSAY - IC50) was determined as 8.61 µM.
Regarding `N#CC1=C2SC=C(c3ccc(Br)cc3)N2CCCC1=O`, the IC90 was above 10 µM. Also, the IC50 under setting [1] is above 10 µM.
Turning to `CC(NCc1nc(N)nc(N(C)C)n1)c1ccccc1Cl` (stereo not drawn), the IC90 was above 10 µM. Moreover, the half-maximal inhibitory concentration (IC50) under setting [1] was above 10 µM.
`O=C(COC(=O)c1cn(-c2ccccc2)nc1-c1ccccc1)Nc1ccc(Cl)c(S(=O)(=O)N2CCOCC2)c1`: the 90% effect concentration (IC90) was above 10 µM. Moreover, the IC50 (PBLUC_HILL_SLOPE 2.11, PBLUC_R_SQUARED 0.445, read-out: LUCIFERASE INFECTION ASSAY - IC50) worked out at 5.37 µM.
For `O=C1C(Cl)=C(Nc2ccccc2)C(=O)c2ccccc21`, the IC90 was above 11.6 µM. For the same compound, the IC50 (HEPG2TOX_HILL_SLOPE 3.85, HEPG2TOX_R_SQUARED 0.988, PBLUC_HILL_SLOPE 1.86, PBLUC_R_SQUARED 0.682, read-out: LUCIFERASE INFECTION ASSAY - IC50) was 3.78 µM.
Regarding `COc1ccccc1-c1ccnc2n[nH]c(-c3cc(OC)c(OC)c(OC)c3)c12`, the IC90 stood at 3.93 µM. In addition, where the note is “HEPG2TOX_HILL_SLOPE 2.69, HEPG2TOX_R_SQUARED 0.93, PBLUC_HILL_SLOPE 7.13, PBLUC_R_SQUARED 0.294, read-out: LUCIFERASE INFECTION ASSAY - IC50”, the IC50 was 2.89 µM.
For the compound `CN1/C(=C\C=N\NC(=O)c2cccs2)C(C)(C)c2ccccc21`, the IC90 was 8.4 µM. Besides, the IC50 (PBLUC_HILL_SLOPE 3.23, PBLUC_R_SQUARED 0.426, read-out: LUCIFERASE INFECTION ASSAY - IC50) was 4.25 µM.
As for `CCCOc1c(Cl)cc(C(=O)Nc2nonc2-c2cccs2)cc1Cl`, the 90% effect concentration (IC90) stood at 2.87 µM. In addition, where the note is “HEPG2TOX_HILL_SLOPE 2.94, HEPG2TOX_R_SQUARED 0.74, PBLUC_HILL_SLOPE 28.4, PBLUC_R_SQUARED 0.116, read-out: LUCIFERASE INFECTION ASSAY - IC50”, the IC50 came to 2.66 µM.
Regarding `CCn1c2ccccc2c2cc(Nc3cc(-c4ccc(O)cc4)ncn3)ccc21`, the IC90 was 5.79 µM. For the same compound, the IC50 under setting [1] worked out at 2.24 µM.
For `O=[N+]([O-])c1ccc(Oc2c(Cl)cc(S(=O)(=O)Nc3cccc(C(F)(F)F)c3)cc2Cl)c(Cl)c1`, the IC90 is above 6.09 µM. The half-maximal inhibitory concentration (IC50) (FFLUC_HILL_SLOPE 1.65, FFLUC_R_SQUARED 0.655, read-out: LUCIFERASE INFECTION ASSAY - IC50) was above 6.09 µM.
Regarding `CCOc1ccccc1C=C(c1nc2ccccc2s1)c1nc2ccccc2s1`, the IC90 amounted to 9.81 µM. For the same compound, the IC50 (PBLUC_HILL_SLOPE 3.78, PBLUC_R_SQUARED 0.344, read-out: LUCIFERASE INFECTION ASSAY - IC50) was 5.48 µM.
On to `CC1CCC(C(C)C)C(OCC(=O)NCc2ccc(NC(=O)c3ccco3)cc2)C1` (stereo not drawn), for which the IC90 was above 10 µM. Besides, the IC50 (PBLUC_HILL_SLOPE 3.59, PBLUC_R_SQUARED 0.694, read-out: LUCIFERASE INFECTION ASSAY - IC50) is 6.09 µM.
In the case of `COc1cc(NC(=O)Nc2nc(C(N)Cc3ccc(C(F)(F)F)cc3)cs2)cc(OC)c1OC` (stereo not drawn), the IC90 is above 6.65 µM. The IC50 (PBLUC_HILL_SLOPE 15.7, PBLUC_R_SQUARED 0.39, read-out: LUCIFERASE INFECTION ASSAY - IC50) amounted to 6.04 µM.
Take `c1ccc(-c2cn3c(-c4ccc5ncccc5c4)cnc3cn2)cc1`: the concentration for an effect of 90% (IC90) was 2.41 µM. Under “HEPG2TOX_HILL_SLOPE 1.31, HEPG2TOX_R_SQUARED 0.967, PBLUC_HILL_SLOPE 1.9, PBLUC_R_SQUARED 0.856, read-out: LUCIFERASE INFECTION ASSAY - IC50”, the IC50 amounted to 0.759 µM.
For the compound `Cc1cc(C(=O)/C(C#N)=N/Nc2cccc(Cl)c2)n(C(C)(C)C)n1`, the IC90 was above 9.6 µM. Under “HEPG2TOX_HILL_SLOPE 1.25, HEPG2TOX_R_SQUARED 0.973, PBLUC_HILL_SLOPE 1.27, PBLUC_R_SQUARED 0.674, read-out: LUCIFERASE INFECTION ASSAY - IC50”, the IC50 was determined as 3.49 µM.
In the case of `CC(=O)N1CCc2cc(NC(=O)CNc3ccc(C)cc3C)ccc21`, the IC90 was above 10 µM. For the same compound, the IC50 under setting [1] was above 10 µM.
Take `CCNC(=O)c1cccc(Nc2nc(C(F)(F)F)nc3ccccc23)c1`: the IC90 is above 10 µM. Also, the IC50 under setting [1] was above 10 µM.

The IC50 is the concentration at which inhibition is half-maximal. One may read the IC90 as the concentration at which the effect reaches the 90% level.
